The target of this experiment is T1, mutant B-RAF (Homo sapiens, UniProt P15056, V600E).
T1 construct: purchased Upstate (Charlottesville, Va.)
As to the kind of experiment: RAF biochemical assay (MEK-1 phosphorylation, anti-phospho MEK1/2 detection). The note with it: for IC50: read-out: Mutant B-RAF IC50; for inhibition at 10 µM: read-out: Mutant B-RAF % inhibition. Summed up:
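Detection is by ELISA: after a 30 min room-temperature reaction, plate-captured GST-MEK-1 is probed with anti-phospho MEK1/2, then an AP-tagged secondary antibody with fluorescent Attophos read-out.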

Where two headings read alike, the source gives them in different places.

T1 sequence (P15056 whole entry V600E): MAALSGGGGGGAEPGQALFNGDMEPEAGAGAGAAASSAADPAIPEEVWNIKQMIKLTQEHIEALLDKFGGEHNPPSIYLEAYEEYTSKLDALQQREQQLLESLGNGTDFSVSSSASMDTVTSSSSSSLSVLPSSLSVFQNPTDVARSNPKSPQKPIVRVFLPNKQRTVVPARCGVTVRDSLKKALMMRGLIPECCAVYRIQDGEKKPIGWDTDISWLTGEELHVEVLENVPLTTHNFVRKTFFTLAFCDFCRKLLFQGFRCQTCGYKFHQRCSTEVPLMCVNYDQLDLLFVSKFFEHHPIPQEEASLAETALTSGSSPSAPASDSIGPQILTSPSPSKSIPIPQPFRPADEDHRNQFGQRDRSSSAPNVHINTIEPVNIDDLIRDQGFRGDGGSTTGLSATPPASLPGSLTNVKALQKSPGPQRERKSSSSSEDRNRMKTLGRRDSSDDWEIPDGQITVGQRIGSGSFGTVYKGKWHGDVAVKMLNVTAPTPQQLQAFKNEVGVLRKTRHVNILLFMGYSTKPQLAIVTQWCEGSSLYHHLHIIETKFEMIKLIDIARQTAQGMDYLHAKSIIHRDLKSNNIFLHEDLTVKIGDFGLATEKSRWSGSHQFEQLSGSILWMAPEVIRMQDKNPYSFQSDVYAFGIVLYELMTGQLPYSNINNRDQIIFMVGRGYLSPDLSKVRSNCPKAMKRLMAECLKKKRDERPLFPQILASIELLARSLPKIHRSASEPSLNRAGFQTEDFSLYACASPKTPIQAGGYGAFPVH

One may read the IC50 as the point on the concentration scale where inhibition reaches its midpoint. As for `O=S(=O)(c1ccc(Cl)cc1)N1CCC[C@@H](Nc2nccc(-c3c(-c4ccc(F)cc4)nc4sccn34)n2)C1` [Example 98, N-{(3R)-1-[(4-chlorophenyl)sulfonyl]piperidin-3-yl}-4-[6(4-fluorophenyl)imidazo[2,1-b][1,3]thiazol-5-yl]pyrimidin-2-amine], the IC50 is 36 nM.
In general, inhibition refers to the percentage by which the read-out fell short of the control. In the case of `c1cc(-c2c(-c3ccc4c(c3)OCCO4)nc3sccn23)nc(N[C@@H]2CCCNC2)n1` [Example 99, 4-[6-(2,3-dihydro-1,4-benzodioxin-6-yl)imidazo[2,1-b][1,3]thiazol-5-yl]-N-[(3R)-piperidin-3-yl]pyrimidin-2-amine], the inhibition at 10 µM (@ 10 uM) stood at 29%.
The same measure, in the same setting: with `COc1cc(-c2nc3sccn3c2-c2ccnc(N[C@@H]3CCCN(S(=O)(=O)c4ccc(Cl)cc4)C3)n2)ccc1Cl` [Example 100, 4-[6-(4-chloro-3-methoxyphenyl)imidazo[2,1-b][1,3]thiazol-5-yl]-N-{(3R)-1-[(4-chlorophenyl)sulfonyl]piper-idin-3-yl}pyrimidin-2-amine] the figure was 40%.
`O=S(=O)(c1ccc(Cl)cc1)N1CCC[C@@H](Nc2nccc(-c3c(-c4ccc(Cl)c(O)c4)nc4sccn34)n2)C1` [Example 101, 2-chloro-5-{5-[2-({(3R)-1-[(4-chlorophenyl)sulfonyl]piperidin-3-yl}amino)pyrimidin-4-yl]imidazo[2,1-b][1,3]thiazol-6-yl}phenol]: the IC50 is 11 nM.
Regarding `COc1ccccc1-c1nc2sccn2c1-c1ccnc(N[C@@H]2CCCNC2)n1` [Example 102, 4-[6-(2-methoxyphenyl)imidazo[2,1-b][1,3]thiazol-5-yl]-N-[(3R)-piperidin-3-yl]pyrimidin-2-amine], the IC50 amounted to 1280 nM.
As for `COc1cccc(-c2nc3occn3c2-c2ccnc(N[C@@H]3CCCN(S(=O)(=O)c4ccc(Cl)cc4)C3)n2)c1` [Example 103, N-{(3R)-1-[(4-chlorophenyl)sulfonyl]piperidin-3-yl}-4-[6-(3-methoxyphenyl)imidazo[2,1-b][1,3]oxazol-5-yl]pyrimidin-2-amine], the inhibition at 10 µM (@ 10 uM) worked out at 48%.
Turning to `COc1ccc(-c2nc3sccn3c2-c2ccnc(N[C@@H]3CCCNC3)n2)cc1` [Example 106, 4-[6-(4-methoxyphenyl)imidazo[2,1-b][1,3]thiazol-5-yl]-N-[(3R)-piperidin-3-yl]pyrimidin-2-amine], the inhibition at 10 µM (@ 10 uM) amounted to 27%.
As to `O=S(=O)(c1ccc(Cl)cc1)N1CCC[C@@H](Nc2nccc(-c3c(-c4ccccc4O)nc4sccn34)n2)C1` [Example 107, 2-{5-[2-({(3R)-1-[(4-chlorophenyl)sulfonyl]piperidin-3-yl}amino)pyrimidin-4-yl]imidazo[2,1-b][1,3]thiazol-6-yl}phenol], the IC50 turned out to be 33 nM.
Turning to `COc1cccc(-c2nc3sccn3c2-c2ccnc(N[C@@H]3CCCN(C(=O)c4ccc(F)cc4)C3)n2)c1` [Example 108, N-[(3R)-1-(4-fluorobenzoyl)piperidin-3-yl]-4-[6-(3-methoxyphenyl)imi-dazo[2,1-b][1,3]thiazol-5-yl]pyrimidin-2-amine], the inhibition at 10 µM worked out at 73%.
As to `COc1cccc(-c2nc3sccn3c2-c2ccnc(N[C@@H]3CCCN(C(=O)CC(C)C)C3)n2)c1` [Example 109, 4-[6-(3-methoxyphenyl)imidazo[2,1-b][1,3]thiazol-5-yl]-N-[(3R)-1-(3-methylbutanoyl)piperidin-3-yl]pyrimidin-2-amine], the IC50 was over 3000 nM.
For `O=S(=O)(c1ccc(Cl)cc1)N1CCC[C@@H](Nc2nccc(-c3c(-c4ccc(O)cc4)nc4sccn34)n2)C1` [Example 110, 4-{5-[2-({(3R)-1-[(4-chlorophenyl)sulfonyl]piperidin-3-yl}amino)pyrimidin-4-yl]imidazo[2,1-b][1,3]thiazol-6-yl}phenol], the IC50 was over 5000 nM.
Take `N#Cc1ccc(S(=O)(=O)N2CCC[C@@H](Nc3nccc(-c4c(-c5cccc(O)c5)nc5sccn45)n3)C2)cc1` [Example 111, 4-{[(3R)-3-({4-[6-(3-hydroxyphenyl)imidazo[2,1-b][1,3]thiazol-5-yl]pyrimidin-2-yl}amino)piperidin-1-yl]sulfonyl}benzonitrile]: the IC50 is 28 nM.
Regarding `O=C(c1ccc(F)cc1)N1CCC[C@@H](Nc2nccc(-c3c(-c4cccc(O)c4)nc4sccn34)n2)C1` [Example 113, 3-[5-(2-{[(3R)-1-(4-fluorobenzoyl)piperidin-3-yl]amino}pyrimidin-4-yl)imidazo[2,1-b][1,3]thiazol-6-yl}phenol], the IC50 came to 3840 nM.
Where the note is “@ 3 uM”, `O=S(=O)(c1ccc(Cl)cc1)N1CCC[C@@H](Nc2nccc(-c3c(-c4ccc(F)c(F)c4)nc4sccn34)n2)C1` [Example 114, N-{(3R)-1-[(4-chlorophenyl)sulfonyl]piperidin-3-yl}-4-[6-(3,4-difluorophenyl)imidazo[2,1-b][1,3]thiazol-5-yl]pyrimidin-2-amine] gave an inhibition at 3 µM of 48%.
With `COc1cccc(-c2nc3occn3c2-c2ccnc(N[C@@H]3CCCNC3)n2)c1` [Example 115, 4-[6-(3-methoxyphenyl)imidazo[2,1-b][1,3]oxazol-5-yl]-N-[(3R)-piperidin-3-yl]pyrimidin-2-amine], the IC50 was over 10000 nM.
Take `CC(C)CC(=O)N1CCC[C@@H](Nc2nccc(-c3c(-c4cccc(O)c4)nc4sccn34)n2)C1` [Example 116, 3-[5-(2-{[(3R)-1-(3-methylbutanoyl)piperidin-3-yl]amino}pyrimidin-4-yl)imidazo[2,1-b][1,3]thiazol-6-yl]phenol]: the inhibition at 10 µM (@ 10 uM) was determined as 52%.
As to `O=C(c1ccncc1)N1CCC[C@@H](Nc2nccc(-c3c(-c4cccc(O)c4)nc4sccn34)n2)C1` [Example 117, 3-[5-(2-{[(3R)-1-isonicotinoylpiperidin-3-yl]amino}pyrimidin-4-yl)imidazo[2,1-b][1,3]thiazol-6-yl]phenol], the half-maximal inhibitory concentration (IC50) was determined as 328 nM.
Turning to `COc1cccc(-c2nc3sccn3c2-c2ccnc(N[C@@H]3CCCN(S(=O)(=O)c4ccc(CCC(=O)O)cc4)C3)n2)c1` [Example 118, 3-(4-{[(3R)-3-({4-[6-(3-methoxyphenyl)imidazo[2,1-b][1,3]thiazol-5-yl]pyrimidin-2-yl}amino)piperidin-1-yl]sulfonyl}phenyl)propanoic acid], the IC50 is 229 nM.
On to `COc1cccc(-c2nc3sccn3c2-c2ccnc(N[C@@H]3CCCN(S(=O)(=O)c4ccc(C(=O)O)cc4)C3)n2)c1` [Example 119, 4-{[(3R)-3-({4-[6-(3-methoxyphenyl)imidazo(2,1-b][1,3]thiazol-5-yl]pyrimidin-2-yl}amino)piperidin-1-yl]sulfonyl}benzoic acid], for which the IC50 was determined as 92 nM.
Take `O=[N+]([O-])c1cccc(-c2nc3sccn3c2-c2ccnc(N[C@@H]3CCCN(S(=O)(=O)c4ccc(Cl)cc4)C3)n2)c1` [Example 120, N-{(3R)-1-[(4-chlorophenyl)sulfonyl]piperidin-3-yl}-4-[6-(3-nitrophenyl)imidazo[2,1-b][1,3]thiazol-5-yl]pyrimidin-2-amine]: the inhibition at 10 µM (@ 10 uM) turned out to be 55%.
As to `Nc1cccc(-c2nc3sccn3c2-c2ccnc(N[C@@H]3CCCN(S(=O)(=O)c4ccc(Cl)cc4)C3)n2)c1` [Example 122, 4-[6-(3-aminophenyl)imidazo[2,1-b][1,3]thiazol-5-yl]-N-{(3R)-1-[(4-chlorophenyl)sulfonyl]piper-idin-3-yl}pyrimidin-2-amine], the IC50 was determined as 429 nM.

Values taken from patent US7501430B2 (ArQule, Inc., priority 2006, dated 2009).
